In brackets after ≈: the same amount, converted by molar mass. Structures can show the parent of a compound that is named as a salt. Bounds are passed on as bounds.

The term IC50 denotes the concentration at which inhibition is half-maximal. A word on the solubility: it is the concentration that dissolves in the medium under given conditions. Read a high solubility as a readily soluble substance.

One series addresses ALK3 (aa198-525) (Homo sapiens (Human), UniProt P36894). The series is described as follows: ADPGlo biochemical autophosphorylation assay, ALK3. The note with it: 15 μm ATP, 60 min at 32° C. A general note: ADP-Glo turns the ADP formed in a reaction into a luminescent signal.
For a further series, the target named is ALK5 (aa162-503) (Homo sapiens (Human), UniProt P36897). The series is described as follows: Caliper biochemical peptide phosphorylation assay, ALK5. To be noted: 15 μm ATP, 60 min at 30° C.; read-out: ALK5 EPK (IC50).
Series [1] addresses T1, wild-type ALK2 (aa172-499) (Homo sapiens (Human), UniProt Q04771). The series is described as follows: Caliper biochemical peptide phosphorylation assay, ALK2. The note with it: 15 μm ATP, 60 min at 30° C.; read-out: ALK2 EPK (IC50).
Series [2] deals with T1, wild-type ALK2 (aa172-499). The experiment in a line: ADPGlo biochemical autophosphorylation assay, ALK2. The note with it: 15 μm ATP, 60 min at 32° C.
A further series addresses ALK1 (aa166-493) (Homo sapiens (Human), UniProt P37023). The series is described as follows: Caliper biochemical peptide phosphorylation assay, ALK1. The note with it: 15 μm ATP, 60 min at 30° C.; read-out: ALK1 EPK (IC50).
Series [3] concerns BMP response element (BRE) luciferase reporter in HuH7 cells, BMP6 stimulated. The series is described as follows: BMP signaling reporter gene assay. In kind it is cell-based. To be noted: Homo sapiens, Huh-7; HuH7 BRE-luciferase, BMP6 100 ng/ml, 5 hours; read-out: MSD BMP RGA IC50. For orientation: Reporter assays use an easily measured gene product as a stand-in for the process of interest.

The target of the next series is ALK6 (aa168-495) (Homo sapiens (Human), UniProt O00238). The experiment in a line: Caliper biochemical peptide phosphorylation assay, ALK6. The note with it: 15 μm ATP, 60 min at 30° C.; read-out: ALK6 EPK (IC50).
Series [4] in a line: Solubility (at 25° C., 24 h equilibration). To be noted: for solubility at 24 h: 25 °C, thermodynamic from solid; for solubility at 24 h / solubility: target concentration 2 mg/mL; for solubility: 25° C., 24 h. It counts as physicochemical.
A short description of series [5]: Dynamic Vapor Sorption, physical stability to humidity. It counts as physicochemical. The note with it: for physical stability (DVS): 50%-0%-90% RH.

T1 sequence (Q04771 172-499): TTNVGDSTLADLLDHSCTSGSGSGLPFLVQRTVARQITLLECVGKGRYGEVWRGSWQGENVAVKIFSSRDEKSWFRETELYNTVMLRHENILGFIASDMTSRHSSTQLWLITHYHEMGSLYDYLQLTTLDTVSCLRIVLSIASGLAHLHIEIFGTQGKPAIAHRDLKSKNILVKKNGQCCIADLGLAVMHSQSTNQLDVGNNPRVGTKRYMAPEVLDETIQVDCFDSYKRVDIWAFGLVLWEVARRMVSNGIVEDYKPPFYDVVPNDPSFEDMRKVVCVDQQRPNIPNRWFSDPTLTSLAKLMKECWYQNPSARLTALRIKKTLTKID
ALK3 (aa198-525), sequence (P36894 198-525): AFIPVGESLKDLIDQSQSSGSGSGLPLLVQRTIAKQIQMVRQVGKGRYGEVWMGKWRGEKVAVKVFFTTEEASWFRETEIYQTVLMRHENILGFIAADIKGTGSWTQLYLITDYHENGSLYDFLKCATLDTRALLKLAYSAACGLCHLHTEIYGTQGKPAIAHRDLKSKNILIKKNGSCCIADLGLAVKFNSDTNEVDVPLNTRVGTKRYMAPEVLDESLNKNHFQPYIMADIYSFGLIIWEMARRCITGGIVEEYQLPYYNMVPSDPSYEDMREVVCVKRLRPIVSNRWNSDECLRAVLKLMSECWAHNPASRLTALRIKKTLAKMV
ALK5 (aa162-503), sequence (P36897 162-503): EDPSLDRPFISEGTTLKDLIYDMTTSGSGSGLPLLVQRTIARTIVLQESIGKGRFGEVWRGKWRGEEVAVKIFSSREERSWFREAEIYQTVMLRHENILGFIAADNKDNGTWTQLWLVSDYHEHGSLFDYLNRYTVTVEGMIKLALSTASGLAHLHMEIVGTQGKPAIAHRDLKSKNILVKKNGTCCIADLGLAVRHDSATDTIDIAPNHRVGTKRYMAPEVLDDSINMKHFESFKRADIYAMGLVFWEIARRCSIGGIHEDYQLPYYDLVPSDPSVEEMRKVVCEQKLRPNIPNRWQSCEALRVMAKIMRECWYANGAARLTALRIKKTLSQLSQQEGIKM
ALK6 (aa168-495), sequence (O00238 168-495): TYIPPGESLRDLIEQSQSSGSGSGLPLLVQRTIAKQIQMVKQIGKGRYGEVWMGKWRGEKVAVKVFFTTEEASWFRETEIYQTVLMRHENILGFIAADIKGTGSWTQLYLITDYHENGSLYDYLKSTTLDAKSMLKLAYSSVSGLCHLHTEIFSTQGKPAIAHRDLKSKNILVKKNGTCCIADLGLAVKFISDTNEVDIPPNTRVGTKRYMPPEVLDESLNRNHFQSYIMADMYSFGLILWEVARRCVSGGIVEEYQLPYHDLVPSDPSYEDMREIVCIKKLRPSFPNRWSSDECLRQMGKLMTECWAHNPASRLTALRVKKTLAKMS
ALK1 (aa166-493), sequence (P37023 166-493): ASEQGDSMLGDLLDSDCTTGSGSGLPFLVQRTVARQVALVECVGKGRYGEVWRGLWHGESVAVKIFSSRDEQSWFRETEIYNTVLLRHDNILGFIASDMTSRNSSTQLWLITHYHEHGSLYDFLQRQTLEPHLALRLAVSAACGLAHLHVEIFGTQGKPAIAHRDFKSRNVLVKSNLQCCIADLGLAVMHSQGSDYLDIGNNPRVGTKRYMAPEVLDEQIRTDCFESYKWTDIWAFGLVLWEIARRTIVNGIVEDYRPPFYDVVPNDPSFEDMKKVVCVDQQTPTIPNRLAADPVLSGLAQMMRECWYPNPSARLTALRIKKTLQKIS

Turning to `Cc1cc(CN2CCC[C@H]2C)ccc1-c1cnc(N)c(C(=O)N[C@H]2CC[C@](C)(O)CC2)c1` [Example 87, 2-amino-N-((1r,4R)-4-hydroxy-4-methylcyclohexyl)-5-(2-methyl-4-(((R)-2-methylpyrrolidin-1-yl)methyl)phenyl)nicotinamide], the 50% inhibitory concentration (IC50) on ALK3 (aa198-525) stood at 15.1 µM; on ALK5 (aa162-503), 10 µM; in series [1] it was 0.63 µM; in [2], 0.88 µM; on ALK1 (aa166-493), 10 µM; in series [3], 3.55 µM. Besides, the IC50 at ALK6 (aa168-495) was 10 µM.
Take `Nc1ncc(-c2cccc(C(=O)N3CCN(CCO)CC3)c2)cc1C(=O)NC1CCCCC1` [Example 88, 2-amino-N-cyclohexyl-5-(3-(4-(2-hydroxyethyl)piperazine-1-carbonyl)phenyl)nicotinamide]: the concentration for half-maximal inhibition (IC50) at ALK3 (aa198-525) came out at 22.8 µM; on ALK5 (aa162-503), 20.2 µM; in series [1], 0.81 µM; in series [2], 0.99 µM; on ALK1 (aa166-493) it was 20.2 µM; in [3] it was 9.3 µM. The 50% inhibitory concentration (IC50) at ALK6 (aa168-495) turned out to be 20.2 µM.
Turning to `Nc1ncc(-c2ccc([C@@]34C[C@@H]3CN(C3CCOCC3)C4)cc2)cc1C(=O)NC12CCC(O)(CC1)CC2` [Free form Modification HA, 2-amino-N-(4-hydroxybicyclo[2.2.2]octan-1-yl)-5-(4-((1R,5S)-3-(tetrahydro-2H-pyran-4-yl)-3-azabicyclo[3.1.0]hexan-1-yl)phenyl)nicotinamide], the solubility at 24 h in series [4] (1N HCl, pH 1, simulated gastric fluid, pH 1.0 1N HCl/1.1, 24 h) was > 2000 µg/mL; in series [4] (FeSSIF, pH 5.8, fessif, pH 5.8 FeSSIF/5.9, 24 h) it was 1690 µg/mL (≈ 3.36 mM); in series [4] (HCl buffer, pH 2, simulated gastric fluid, pH 2.0 HCl buffer 2.1, 24 h), > 2000 µg/mL; in series [4] (SGF, pH 2, simulated gastric fluid, pH 2.0 SGF/2.0, 24 h), > 2000 µg/mL; in series [4] (acetate buffer, pH 4.7, aqueous buffer, pH 4.7 acetate buffer/4.8, 24 h), > 2000 µg/mL. Also, the solubility in series [4] (Water/7.2) was 70 µg/mL (≈ 0.139 mM); in [4] (pH 6.5 FaSSIF/6.5) it was 470 µg/mL (≈ 0.935 mM); in [4] (pH 6.8 phosphate buffer/6.8), 340 µg/mL (≈ 0.676 mM); in series [4] (pH 9.0 borate buffer/8.6) it was “<LOQ”.
For `Nc1ncc(-c2ccc([C@@]34C[C@@H]3CN(C3CCOCC3)C4)cc2)cc1C(=O)NC12CCC(O)(CC1)CC2` [Fumarate salt Modification HA, 2-amino-N-(4-hydroxybicyclo[2.2.2]octan-1-yl)-5-(4-((1R,5S)-3-(tetrahydro-2H-pyran-4-yl)-3-azabicyclo[3.1.0]hexan-1-yl)phenyl)nicotinamide], the “physical stability (DVS)” value is “physically stable at least from 0% to 90% RH” in series [5] (25° C.) and “physically stable at least from 10% to 90% RH” in [5] (40° C.). The “humidity range of stability compared with free form polymorphs” value in series [5] (data not shown) is recorded as “stable over a wider humidity range than free form polymorphs”. For the same compound, the solubility in series [4] (Water/7.2), in series [4] (pH 1.0 1N HCl/1.1), in series [4] (pH 2.0 HCl buffer 2.1), in series [4] (pH 2.0 SGF/2.0), in [4] (pH 4.7 acetate buffer/4.8) and in [4] (pH 5.8 FeSSIF/5.9) was >2000 µg/mL in each case. Also, the solubility turned out to be 1690 µg/mL in [4] (pH 6.5 FaSSIF/6.5) and 1080 µg/mL in series [4] (pH 6.8 phosphate buffer/6.8). In addition, in series [4] (aqueous buffers), the “solubility compared with free form Modification HA” value is given as “better solubility than free form Modification HA in some aqueous buffers”. The compound also showed a solubility at 24 h in series [4] (borate buffer, pH 9, aqueous buffer, pH 9.0 borate buffer/8.6, 24 h) of 30 µg/mL.

(Values after patent US10710980B2, “Aminopyridine derivatives and their use as selective ALK-2 inhibitors” (priority 2016, dated 2020).)
